What all share (format): in vivo
Assay [1] concerns Colletotrichum capsici. Nature of the assay: Field assessment of Colletotrichum capsici (COLLCA) on hot peppers, 2 day protectant. The note with it: 5% EC + Trycol, hot pepper. The protocol:
(§1) Field Assessment of Colletotrichum capsici (COLLCA) on Hot Peppers:
Assessment of compound I of COLLCA on hot peppers, in both protectant and curative fashion, was performed in two separate field trials. For the 2 day protectant test, a fungicidal treatment containing a 5% EC formulation of compound I plus an adjuvant (Trycol, 50% w/w at 0.2% v/v), was sprayed on hot pepper plants (CPSAN) three times, the first application at the flowering and fruiting stage 43 days after planting, with the following applications in 7 day intervals. Formulations of compound I were applied at rates of 50, 100, and 150 grams of active ingredient per hectare (g ai/ha). The experimental plots were inoculated with the anthracnose pathogen 2 days after the first application. The treatment was part of an experimental trial designed as a randomized complete block with four replications and a plot of approximately 2×1 m, with formulations of compound I being applied at water volume of 1000 L/ha.
Disease severity was assessed as the percent fruit area diseased per plant (6 plants per plot randomly). Anthracnose infection was assessed four times, 7 days after application A (DAAA), 7 DAAB, plus 7 and 14 DAAC. Area under the disease progress curve (AUDPC) was calculated for each plot using the sets of recorded visual infection data. Relative AUDPC (% control based on AUDPC) was calculated as percent of the nontreated control.

For assay [2], the system named is Colletotrichum capsici. Nature of the assay: Field assessment of Colletotrichum capsici (COLLCA) on hot peppers, 4 day curative. The settings on record: 5% EC + Trycol, hot pepper.
Text: as §1
For the 4 day curative trial, a fungicidal treatment containing a 5% EC formulation of compound I plus an adjuvant (Trycol, 50% w/w at 0.2% v/v), was sprayed on hot pepper plants (CPSAN) twice, the first application at the flowering and fruiting stage 59 days after planting, with the second application after 7 days. Formulations of compound I were applied at rates of 50, 100, 150 and 200 grams of active ingredient per hectare (g ai/ha). The experimental plots were inoculated with the anthracnose pathogen 4 days before the first application (curative). The treatment was part of an experimental trial designed as a randomized complete block with four replications and a plot of approximately 2×1 m, with formulations of compound I being applied at water volume of 1200 L/ha.
Disease severity was assessed as the percent fruit area diseased per plant (6 plants per plot randomly). Anthracnose infection was assessed four times, 7 days after application A (DAAA), plus 7, 14 and 21 DAAB. Area under the disease progress curve (AUDPC) was calculated for each plot using the sets of recorded visual infection data. Relative AUDPC (% control based on AUDPC) was calculated as percent of the nontreated control.

Assay [3] relates to Alternaria solani. The experiment in a line: Field assessment of Alternaria solani (ALTESO) on tomato, trial 2 (natural disease pressure). The settings on record: for Percent disease control on tomato leaves, Trial 2, 5% EC: 5% EC + Agnique BP420; for Percent disease control on tomato leaves, Trial 2, 10% SC: 10% SC + Agnique BP420. An excerpt:
Field Assessment of Alternaria solani (ALTESO) on Tomato:
In a replicated trial, a fungicidal treatment containing Compound I, applied in both a 5% EC and 10% SC formulation and tank mixed with an adjuvant (Agnique BP420, 50% w/w at 0.3% v/v), was sprayed on tomato plants (LYPES, Taylor variety) at approximately 21 days after planting. Formulations of compound I was applied at rates of 100 and 200 grams of active ingredient per hectare (g ai/ha). The trial was based on six foliar applications at 10 day intervals under natural disease pressure of tomato early blight. The treatment was part of an experimental trial designed as a randomized complete block with four replications and a plot of approximately 2×4 m. Formulations of compound I were applied at water volume of 800 L/ha, using a backpack plot sprayer (BKPCKENG, Solo 443; HCSOLID—Albutz ATR80 Orange Nozzle) and pressurized at 300 kPa. Disease severity (percent control) was recorded as percent visual leaf infection per plot and was assessed at 10 days after the last application.

Assay [4] relates to Stagonosporopsis cucurbitacearum. The experiment in a line: Field assessment of Stagonosporopsis cucurbitacearum (DIDYBR) on watermelon. The note with it: 10% SC; for Percent control based on AUDPC, DIDYBR, adjuvant II: Agnique BP420 (50% w/w at 0.3% v/v). An excerpt: Field Assessment of Stagonosporopsis Cucurbitacearum (DIDYBR) on Watermelon:
A 10% SC formulation of compound I was tanked mixed with four different adjuvants: Agnique BP420 (50% w/w at 0.3% v/v); Trycol (50% w/w at 0.1% v/v); Ethomeen T18H (50% w/w at 0.2% v/v); and Phase II (50% w/w at 0.2% v/v). A fungicidal treatment containing formulations of compound I, either alone or with adjuvants, was sprayed on watermelon plants four times, the first application approximately 2 months after planting, with the following three applications in 7-10 day intervals. Formulations of compound I were applied at rates of 50, 100, 150 and 200 grams of active ingredient per hectare (g ai/ha). The experimental plots were inoculated with the gummy stem blight pathogen 2 days after the first application. The treatment was part of an experimental trial designed as a randomized complete block with four replications and a plot of approximately 2.5×1.4 m. Formulations of compound I were applied at water volume of 675 L/ha.
Disease severity was recorded as the length of stem lesion and as percent area diseased foliage (3 random plants per plot). Watermelon gummy stem blight infection was assessed twice, the first at 6 days after the first application (6 DAAA), followed by 19 DAAD. Area under the disease progress curve (AUDPC) was calculated for each plot using the sets of recorded severity data. Relative AUDPC (% control based on AUDPC) was calculated as percent of the nontreated control.

Molecules are shown by their SMILES.

As to `COc1ccnc(C(=O)N[C@@H](C)C(=O)O[C@@H](C)C(c2ccc(F)cc2)c2ccc(F)cc2)c1OC(C)=O` [Compound I, (S)-1,1-bis(4-fluorophenyl)propan-2-yl (3-acetoxy-4-methoxypicolinoyl)-L-alaninate], the “Percent control based on AUDPC, COLLCA 2 DP” value in assay [1] (50 g ai/ha), in assay [1] (100 g ai/ha) and in assay [1] (150 g ai/ha) was “A (76-100)” in each case. The “Percent control based on AUDPC, COLLCA 4 DC” value in assay [2] (50 g ai/ha) was “C (26-50)”; in assay [2] (100 g ai/ha), “B (51-75)”; in assay [2] (150 g ai/ha), “B (51-75)”; in assay [2] (200 g ai/ha) it was “B (51-75)”. Further, the “Percent disease control on tomato leaves, Trial 2, 5% EC” value in assay [3] (100 g ai/ha) and in assay [3] (200 g ai/ha) was “A (76-100)” in each case. Also, the “Percent disease control on tomato leaves, Trial 2, 10% SC” value in assay [3] (100 g ai/ha) and in assay [3] (200 g ai/ha) was “A (76-100)” each time. In addition, the “Percent control based on AUDPC, DIDYBR, adjuvant II” value in assay [4] (50 g ai/ha), in assay [4] (100 g ai/ha), in assay [4] (150 g ai/ha) and in assay [4] (200 g ai/ha) was “A (76-100)” in each case. In addition, in assay [4] (100 g ai/ha, Ethomeen T18H (50% w/w at 0.2% v/v)), the “Percent control based on AUDPC, DIDYBR, adjuvant IV” value is given as “B (51-75)”. In addition, in assay [4] (100 g ai/ha, Phase II (50% w/w at 0.2% v/v)), the “Percent control based on AUDPC, DIDYBR, adjuvant V” value was “B (51-75)”. Moreover, in assay [4] (100 g ai/ha, Trycol (50% w/w at 0.1% v/v)), the “Percent control based on AUDPC, DIDYBR, adjuvant III” value is given as “B (51-75)”. For the same compound, the “Percent control based on AUDPC, DIDYBR, adjuvant I” value in assay [4] (100 g ai/ha, no adjuvant) is “B (51-75)”.

For the origin of these results see patent publication US20200085047A1, “Use of an Acyclic Picolinamide Compound as a Fungicide for Control of Phytopathogenic Fungi in Vegetables” (Dow AgroSciences LLC, priority 2017, published 2020).
